What was measured:
Format in all cases: cell-based, mouse
CD8+ T cells [1] = experiment: IFNγ ELISPOT, ZIKV-infected Ifnar-/- HLA-B*0702 transgenic mice; conditions: HLA-B*0702 mice; for SFC/10^6 CD8+ T cells, FSS13025: 7 days after 1×10^2 FFU ZIKV FSS13025; for SFC/10^6 CD8+ T cells, MR766: 7 days after 1×10^2 FFU ZIKV MR766; for immunodominance in IFNγ ELISPOT: immunodominant: >500 SFCs/10^6 CD8+ T cells, shared by both ZIKV strains
Outline: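 Mice were infected retro-orbitally with 1×10^2 FFU ZIKV (FSS13025 or MR766), and splenic CD8+ T cells were isolated 7 days later. 2×10^5 cells were stimulated 20 h with 1×10^5 LPS-blasts loaded with 10 μg peptide, in triplicate. Output is SFC/10^6 CD8+ T cells; positive if net >20 and stimulation index >2.0.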

CD8+ T cells [2] = experiment: IFNγ ELISPOT, DENV2 S221-infected Ifnar-/- HLA-B*0702 transgenic mice; conditions: HLA-B*0702 mice, 7 days after 2×10^4 FFU DENV2 S221
Method: (§1) Two ZIKV strains, MR766 (Uganda, 1947) and FSS13025 (Cambodia, 2010), were obtained from the World Reference Center for Emerging Viruses and Arboviruses (WRCEVA). The mouse-adapted DENV2 strain S221 is a triple-plaque purified clone derived from DENV2 D2S1038. Both ZIKV and DENV2 were amplified in C6/36 mosquito cells, and viral titers were measured using baby hamster kidney (BHK)-21 cell-based focus forming assay (FFA). For epitope screening, 5-week old mice (female or male) were infected retro-orbitally (R.O.) with either 1×102 FFU of ZIKV FSS13025 or ZIKV MR766, or 2×10^4 FFU of DENV2 S221 in 200 μl 10% FBS/PBS. Seven days after infection, CD8^+ T cells were isolated from splenocytes and used for ELISPOT assay, while the splenocytes were directly used for ICS assay. Additionally, 5-week old mice were inoculated I.P. with 2×10^3 FFU of DENV2 S221 for 4 weeks.
CD8^+ T cells were isolated from splenocytes using magnetic bead positive selection (Miltenyi Biotec, Germany) 7 days after virus infection. 2×10^5 CD8^+ T cells were stimulated with 1×10^5 LPS-blasts loaded with 10 μg of individual peptide in 96-well flat-bottom plates (IMMOBILON™-P; Millipore, Bedford, Mass.) that were coated with anti-IFNγ mAb (clone AN18; Mabtech, Stockholm, Sweden) in triplicate. Concanavalin A (ConA) was used as positive control. After 20 hours of incubation, biotinylated anti-mouse IFNγ mAb (R4-6A2; Mabtech), followed by ABC peroxidase (Vector Laboratories, Burlingame, Calif., USA) and then 3-amino-9-ethylcarbazole (Sigma-Aldrich, St. Louis, Mo., USA) were added into the wells. […] A peptide inducing a magnitude of >500 SFCs/10^6 CD8^+ T cells was considered as an immunodominant peptide.
(§2) The following results are with respect to FIG. 14A and FIG. 14B, where Ifnar^−/− HLA-B*0702 transgenic mice were infected R.O. with 2×10^4 FFU of DENV2 strain S221 for 7 days. CD8^+ T cells isolated from splenocytes were stimulated with each of the 37 ZIKV epitopes identified via IFNγELISPOT to perform (FIG. 14A) IFNγELISPOT and (FIG. 14B) ICS assay. Data represent the average of two independent IFNγELISPOT experiments and two independent ICS experiments (n=7 mice) and are expressed as mean±SEM. Dotted line corresponds to the cutoff value. *, P<0.05.

CD3+CD8+ T cells = experiment: IFNγ ICS, ZIKV-infected Ifnar-/- HLA-B*0702 transgenic mice; conditions: for % IFNγ+ CD8+ T cells, FSS13025 / % IFNγ+ CD8+ T cells, MR766: HLA-B*0702 mice; for % IFNγ+ CD8+ T cells, FSS13025: 7 days after ZIKV FSS13025, ICS; for % IFNγ+ CD8+ T cells, MR766: 7 days after ZIKV MR766, ICS; for simultaneous IFNγ and TNFα production by peptide-stimulated CD8+ T cells: ZIKV MR766-infected mice
Method: as §1
(§3) Spleens were harvested from virus-infected, mock-immunized, or peptide-immunized mice. 1×10^6 splenocytes were plated in each well of 96-well U-bottom plates and stimulated with individual peptide (10 μg crude peptide or 1 μg pure peptide per well) for 6 hours. Five hours before the end of incubation, Brefeldin A (GolgiPlug; BD Biosciences) and PE-conjugated anti CD107a mAb (clone 1D4B, eBioscience) were added to the cells. Splenocytes stimulated with PMA-ionomycin were used as the positive control, while cells without any stimulation were the negative control. […] Samples were run using an LSR™ II (BD Biosciences) and analyzed using FLOWJO™ software X 10.0.7 (Tree Star, Ashland, Oreg.).
Data represent the average of two independent experiments and are expressed as mean±SEM. *, P<0.05; **, P<0.01; Two-tailed Mann-Whitney test. P/I denotes PMA/ionomycin.

CD8+ T cells [3] = experiment: IFNγ ICS, DENV2 S221-infected Ifnar-/- HLA-B*0702 transgenic mice; conditions: HLA-B*0702 mice; for % IFNγ+ CD8+ T cells, S221: 7 days after DENV2 S221, ICS; for ZIKV/DENV cross-reactivity in DENV2-infected mice (IFNγ ELISPOT and IFNγ ICS): DENV2 S221, 7 days
Method: as §1, §3, §2

CD8+ T cells [4] = experiment: ICS, DENV2-immune Ifnar-/- HLA-B*0702 mice challenged with ZIKV FSS13025; conditions: day 3 after ZIKV FSS13025 challenge
Method: as §1
Spleens were harvested from virus-infected, mock-immunized, or peptide-immunized mice. 1×10^6 splenocytes were plated in each well of 96-well U-bottom plates and stimulated with individual peptide (10 μg crude peptide or 1 μg pure peptide per well) for 6 hours. Five hours before the end of incubation, Brefeldin A (GolgiPlug; BD Biosciences) and PE-conjugated anti CD107a mAb (clone 1D4B, eBioscience) were added to the cells. Splenocytes stimulated with PMA-ionomycin were used as the positive control, while cells without any stimulation were the negative control. After incubation, cells were first stained with PERCPCY™ 5.5-conjugated anti-CD3 mAb (Clone 145-2C11, TONBO), PE-CY7™-conjugated anti-CD8 mAb (clone 53-67, BD Biosciences), EFLUOR™ 450-conjugated anti-CD44 mAb (clone IM7, eBioscience), and APC eFluor 780-conjugated anti-CD62L mAb (clone Mel-14, eBioscience). Cells were then fixed and permeabilized using CYTOFIX/CYTOPERM™ solution (BD Biosciences), followed by staining with FITC-conjugated anti-IFNγ mAb (clone XMG 1.2, TONBO) and APC-conjugated anti-TNFα mAb (clone MP6-XT22, eBioscience). Samples were run using an LSR™ II (BD Biosciences) and analyzed using FLOWJO™ software X 10.0.7 (Tree Star, Ashland, Oreg.).
The following results are with respect to FIG. 11 to FIG. 11E, where Ifnar^−/− HLA-B*0702 transgenic mice were inoculated I.P. with 2×10^3 FFU of DENV2 strain S221 for 4 weeks. Naive mice (n=5) and DENV2 strain S221-immune mice (n=5) were challenged R.O. with 1×10^4 FU of ZIKV FSS13025 for three days, and the percentages of peptide-specific IFNγ^+ and/or TNFα^+ CD8^+ T cells were detected by ICS (FIG. 11A and FIG. 11B). […] Data were expressed as mean±SEM. *, P<0.05; **, P<0.01; Two-tailed ann-Whitney test. Black “*” indicates ZIKV-specific response while bold “*” represents ZIKV/DENV cross-reactive response. All positive peptides were grouped according the ZIKV specificity of immune response (FIG. 11E). Numbers in parentheses indicate the number of positive peptides in this group.

Sequence | SFC/10^6 CD8+ T cells, FSS13025 (CD8+ T cells [1]) | SFC/10^6 CD8+ T cells, MR766 (CD8+ T cells [1]) | immunodominance in IFNγ ELISPOT (CD8+ T cells [1]) | SFC/10^6 CD8+ T cells, S221 (CD8+ T cells [2]) | % IFNγ+ CD8+ T cells, FSS13025 (CD3+CD8+ T cells) | % IFNγ+ CD8+ T cells, MR766 (CD3+CD8+ T cells) | simultaneous IFNγ and TNFα production by peptide-stimulated CD8+ T cells (CD3+CD8+ T cells) | % IFNγ+ CD8+ T cells, S221 (CD8+ T cells [3]) | ZIKV/DENV cross-reactivity in DENV2-infected mice (IFNγ ELISPOT and IFNγ ICS) (CD8+ T cells [3]) | IFNγ and TNFα double-positive epitope-specific CD8+ T cells (CD8+ T cells [4]) | percentage of epitope-specific IFNγ-producing CD8+ T cells (CD8+ T cells [4])
KPRWMDARV [FSS/MR-NS3574-582] | 969 SFC/10^6 CD8+ T cells | 1095 SFC/10^6 CD8+ T cells | immunodominant | 350 SFC/10^6 CD8+ T cells | (0.79%) | (1.9%) | stimulated simultaneous production of IFNγ and TNFα | (0.63%) | positive in both IFNγ ELISPOT and IFNγICS assays | double-positive with expression of both IFNγ and TNFα | 2.61±1.19%
RPALLVSFIF [FSS/MR-NS2A75-84] | 713 SFC/10^6 CD8+ T cells | 582 SFC/10^6 CD8+ T cells | immunodominant | 88 SFC/10^6 CD8+ T cells | (0.53%) | (2.04%) | stimulated simultaneous production of IFNγ and TNFα | (0.58%) | positive in both IFNγ ELISPOT and IFNγICS assays | double-positive with expression of both IFNγ and TNFα | 0.44±0.24%

— patent US11806393B2, “Flavivirus peptide sequences, epitopes, and methods and uses thereof” (priority 2017, dated 2023)
